Experimental data taken from patent US9125913B2, “Bcl-2-selective apoptosis-inducing agents for the treatment of cancer and immune diseases” (AbbVie Inc., priority 2008, dated 2015).

Test system: GST-Bcl-2
Assay: TR-FRET binding assay, Bcl-2
Settings: TR-FRET Ki values
Outline: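 Ki values come from Wang's competitive-binding equation applied to TR-FRET signal (excitation 340/35 nm; emission 520/525 nm F-Bak peptide, 495/510 nm Tb antibody). Protein, probe and antibody incubated with compound 3 h at room temperature; dilution series began at 50 μM as 2× stock in 10% DMSO.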

SMILES	Binding selectivity ratio (Bcl-XL Ki/Bcl-2 Ki)
CC1(C)CCC(CN2CCN(c3ccc(C(=O)NS(=O)(=O)c4cnc(OCC5(F)CCOCC5)c(Cl)c4)c(Oc4cccc5[nH]cnc45)c3)CC2)=C(c2ccc(Cl)cc2)C1 [EXAMPLE 443, 2-(1H-benzimidazol-4-yloxy)-N-({5-chloro-6-[(4-fluorotetrahydro-2H-pyran-4-yl)methoxy]pyridin-3-yl}sulfonyl)-4-(4-{[2-(4-chlorophenyl)-4,4-dimethylcyclohex-1-en-1-yl]methyl}piperazin-1-yl)benzamide]	1935.7
CC1(C)CCC(CN2CCN(c3ccc(C(=O)NS(=O)(=O)c4cnc(OC[C@@H]5CCN(C(CF)CF)C5)c(Cl)c4)c(Oc4cccc5[nH]ncc45)c3)CC2)=C(c2ccc(Cl)cc2)C1 [EXAMPLE 444, N-{[5-chloro-6-({(3R)-1-[2-fluoro-1-(fluoromethyl)ethyl]pyrrolidin-3-yl}methoxy)pyridin-3-yl]sulfonyl}-4-(4-{[2-(4-chlorophenyl)-4,4-dimethylcyclohex-1-en-1-yl]methyl}piperazin-1-yl)-2-(1H-indazol-4-yloxy)benzamide]	727.625
CC1(C)CCC(CN2CCN(c3ccc(C(=O)NS(=O)(=O)c4cnc(OC[C@@H]5CCN(CC(F)F)C5)c(Cl)c4)c(Oc4cccc5[nH]ncc45)c3)CC2)=C(c2ccc(Cl)cc2)C1 [EXAMPLE 445, N-[(5-chloro-6-{[(3R)-1-(2,2-difluoroethyl)pyrrolidin-3-yl]methoxy}pyridin-3-yl)sulfonyl]-4-(4-{[2-(4-chlorophenyl)-4,4-dimethylcyclohex-1-en-1-yl]methyl}piperazin-1-yl)-2-(1H-indazol-4-yloxy)benzamide]	484.2
CO[C@H]1CC[C@H](CNc2ccc(S(=O)(=O)NC(=O)c3ccc(N4CCN(CC5=C(c6ccc(Cl)cc6)CC(C)(C)CC5)CC4)cc3Oc3cccc4[nH]ncc34)cc2[N+](=O)[O-])CC1 [EXAMPLE 446, Trans-4-(4-{[2-(4-chlorophenyl)-4,4-dimethylcyclohex-1-en-1-yl]methyl}piperazin-1-yl)-2-(1H-indazol-4-yloxy)-N-[(4-{[(4-methoxycyclohexyl)methyl]amino}-3-nitrophenyl)sulfonyl]benzamide]	508.4
CC1(C)CCC(CN2CCN(c3ccc(C(=O)NS(=O)(=O)c4cnc(NC5CCN(C6CC6)CC5)c(Cl)c4)c(Oc4cccc5[nH]ncc45)c3)CC2)=C(c2ccc(Cl)cc2)C1 [EXAMPLE 448, N-({5-chloro-6-[(1-cyclopropylpiperidin-4-yl)amino]pyridin-3-yl}sulfonyl)-4-(4-{[2-(4-chlorophenyl)-4,4-dimethylcyclohex-1-en-1-yl]methyl}piperazin-1-yl)-2-(1H-indazol-4-yloxy)benzamide]	3119
CC1(C)CCC(CN2CCN(c3ccc(C(=O)NS(=O)(=O)c4cnc(NC5CCN(C6CC6)CC5)c(Cl)c4)c(Oc4cccc5[nH]cnc45)c3)CC2)=C(c2ccc(Cl)cc2)C1 [EXAMPLE 449, 2-(1H-benzimidazol-4-yloxy)-N-({5-chloro-6-[(1-cyclopropylpiperidin-4-yl)amino]pyridin-3-yl}sulfonyl)-4-(4-{[2-(4-chlorophenyl)-4,4-dimethylcyclohex-1-en-1-yl]methyl}piperazin-1-yl)benzamide]	74.4
CC1(C)CCC(CN2CCN(c3ccc(C(=O)NS(=O)(=O)c4ccc(NCC5COCCO5)c([N+](=O)[O-])c4)c(Oc4cccc5[nH]cnc45)c3)CC2)=C(c2ccc(Cl)cc2)C1 (stereo not drawn) [EXAMPLE 450, 2-(1H-benzimidazol-4-yloxy)-4-(4-{[2-(4-chlorophenyl)-4,4-dimethylcyclohex-1-en-1-yl]methyl}piperazin-1-yl)-N-({4-[(1,4-dioxan-2-ylmethyl)amino]-3-nitrophenyl}sulfonyl)benzamide]	107.3
CC1(C)CCC(CN2CCN(c3ccc(C(=O)NS(=O)(=O)c4ccc(NC5CCN(C6CC6)CC5)c([N+](=O)[O-])c4)c(Oc4cccc5[nH]cnc45)c3)CC2)=C(c2ccc(Cl)cc2)C1 [EXAMPLE 451, 2-(1H-benzimidazol-4-yloxy)-4-(4-{[2-(4-chlorophenyl)-4,4-dimethylcyclohex-1-en-1-yl]methyl}piperazin-1-yl)-N-({4-[(1-cyclopropylpiperidin-4-yl)amino]-3-nitrophenyl}sulfonyl)benzamide]	359.92
CC1(C)CCC(CN2CCN(c3ccc(C(=O)NS(=O)(=O)c4ccc(N[C@H]5CC[C@H](N6CCOCC6)CC5)c([N+](=O)[O-])c4)c(Oc4cccc5[nH]cnc45)c3)CC2)=C(c2ccc(Cl)cc2)C1 [EXAMPLE 452, Trans-2-(1H-benzimidazol-4-yloxy)-4-(4-{[2-(4-chlorophenyl)-4,4-dimethylcyclohex-1-en-1-yl]methyl}piperazin-1-yl)-N-({4-[(4-morpholin-4-ylcyclohexyl)amino]-3-nitrophenyl}sulfonyl)benzamide]	600.39
CN1CCN(Nc2ccc(S(=O)(=O)NC(=O)c3ccc(N4CCN(CC5=C(c6ccc(Cl)cc6)CC(C)(C)CC5)CC4)cc3Oc3cccc4[nH]cnc34)cc2[N+](=O)[O-])CC1 [EXAMPLE 453, 2-(1H-benzimidazol-4-yloxy)-4-(4-{[2-(4-chlorophenyl)-4,4-dimethylcyclohex-1-en-1-yl]methyl}piperazin-1-yl)-N-({4-[(4-methylpiperazin-1-yl)amino]-3-nitrophenyl}sulfonyl)benzamide]	363.04
COCCOCCN1CCO[C@H](CNc2ccc(S(=O)(=O)NC(=O)c3ccc(N4CCN(CC5=C(c6ccc(Cl)cc6)CC(C)(C)CC5)CC4)cc3Oc3cccc4[nH]cnc34)cc2[N+](=O)[O-])C1 [EXAMPLE 455, 2-(1H-benzimidazol-4-yloxy)-4-(4-{[2-(4-chlorophenyl)-4,4-dimethylcyclohex-1-en-1-yl]methyl}piperazin-1-yl)-N-({4-[({(2R)-4-[2-(2-methoxyethoxy)ethyl]morpholin-2-yl}methyl)amino]-3-nitrophenyl}sulfonyl)benzamide]	139.4
CC1(C)CCC(CN2CCN(c3ccc(C(=O)NS(=O)(=O)c4ccc(NCC5CCC(F)(F)CC5)c([N+](=O)[O-])c4)c(Oc4cccc5[nH]cnc45)c3)CC2)=C(c2ccc(Cl)cc2)C1 [EXAMPLE 456, 2-(1H-benzimidazol-4-yloxy)-4-(4-{[2-(4-chlorophenyl)-4,4-dimethylcyclohex-1-en-1-yl]methyl}piperazin-1-yl)-N-[(4-{[(4,4-difluorocyclohexyl)methyl]amino}-3-nitrophenyl)sulfonyl]benzamide]	53.991
CC(=O)N1CCOC(CNc2ccc(S(=O)(=O)NC(=O)c3ccc(N4CCN(CC5=C(c6ccc(Cl)cc6)CC(C)(C)CC5)CC4)cc3Oc3cccc4[nH]cnc34)cc2[N+](=O)[O-])C1 (stereo not drawn) [EXAMPLE 457, N-[(4-{[(4-acetylmorpholin-2-yl)methyl]amino}-3-nitrophenyl)sulfonyl]-2-(1H-benzimidazol-4-yloxy)-4-(4-{[2-(4-chlorophenyl)-4,4-dimethylcyclohex-1-en-1-yl]methyl}piperazin-1-yl)benzamide]	7414
CC1(C)CCC(CN2CCN(c3ccc(C(=O)NS(=O)(=O)c4ccc(NCC5CN(S(C)(=O)=O)CCO5)c([N+](=O)[O-])c4)c(Oc4cccc5[nH]cnc45)c3)CC2)=C(c2ccc(Cl)cc2)C1 (stereo not drawn) [EXAMPLE 458, 2-(1H-benzimidazol-4-yloxy)-4-(4-{[2-(4-chlorophenyl)-4,4-dimethylcyclohex-1-en-1-yl]methyl}piperazin-1-yl)-N-{[4-({[4-(methylsulfonyl)morpholin-2-yl]methyl}amino)-3-nitrophenyl]sulfonyl}benzamide]	237.24
CC1(C)CCC(CN2CCN(c3ccc(C(=O)NS(=O)(=O)c4cnc(OCC5(F)CCN(C(CF)CF)CC5)c(C(F)(F)F)c4)c(Oc4cccc5[nH]ncc45)c3)CC2)=C(c2ccc(Cl)cc2)C1 [EXAMPLE 459, 4-(4-{[2-(4-chlorophenyl)-4,4-dimethylcyclohex-1-en-1-yl]methyl}piperazin-1-yl)-N-{[6-({4-fluoro-1-[2-fluoro-1-(fluoromethyl)ethyl]piperidin-4-yl}methoxy)-5-(trifluoromethyl)pyridin-3-yl]sulfonyl}-2-(1H-indazol-4-yloxy)benzamide]	541.58
CC1(C)CCC(CN2CCN(c3ccc(C(=O)NS(=O)(=O)c4cnc(OCCC5CCCO5)c(Cl)c4)c(Oc4cccc5[nH]ncc45)c3)CC2)=C(c2ccc(Cl)cc2)C1 (stereo not drawn) [EXAMPLE 461, 4-(4-{[2-(4-chlorophenyl)-4,4-dimethylcyclohex-1-en-1-yl]methyl}piperazin-1-yl)-N-{[5-chloro-6-(2-tetrahydrofuran-2-ylethoxy)pyridin-3-yl]sulfonyl}-2-(1H-indazol-4-yloxy)benzamide]	39.44
CC1(C)CCC(CN2CCN(c3ccc(C(=O)NS(=O)(=O)c4cnc(OCC5CCC(F)(F)CC5)c(Cl)c4)c(Oc4cccc5[nH]cnc45)c3)CC2)=C(c2ccc(Cl)cc2)C1 [EXAMPLE 463, 2-(1H-benzimidazol-4-yloxy)-N-({5-chloro-6-[(4,4-difluorocyclohexyl)methoxy]pyridin-3-yl}sulfonyl)-4-(4-{[2-(4-chlorophenyl)-4,4-dimethylcyclohex-1-en-1-yl]methyl}piperazin-1-yl)benzamide]	6043
CC1(C)CCC(CN2CCN(c3ccc(C(=O)NS(=O)(=O)c4ccc(OCC5(F)CCOCC5)c(Cl)c4)c(Oc4cccc5[nH]ncc45)c3)CC2)=C(c2ccc(Cl)cc2)C1 [EXAMPLE 464, N-({3-chloro-4-[(4-fluorotetrahydro-2H-pyran-4-yl)methoxy]phenyl}sulfonyl)-4-(4-{[2-(4-chlorophenyl)-4,4-dimethylcyclohex-1-en-1-yl]methyl}piperazin-1-yl)-2-(1H-indazol-4-yloxy)benzamide]	6432
